This is an account of results in patent publication US8513418B2, “Substituted bicyclic methyl amine derivatives as sphingosine-1 phosphate receptors modulators” (Allergan, Inc., priority 2011, dated 2013).

Structures are written as SMILES. pEC50: −log10 of the molar value. A value given as a limit tells only on which side of the number the result lay.

Usually pEC50 stands for the negative decadic logarithm of the EC50, by convention in mol/L. Low readings indicate a large EC50, high ones a small EC50.

In one experiment the target is T1, human S1P1 receptor (Homo sapiens, UniProt P21453).
T1 construct: expressed in transfected cells; membranes of cells stably expressing the receptor
T1 sequence (P21453 whole entry): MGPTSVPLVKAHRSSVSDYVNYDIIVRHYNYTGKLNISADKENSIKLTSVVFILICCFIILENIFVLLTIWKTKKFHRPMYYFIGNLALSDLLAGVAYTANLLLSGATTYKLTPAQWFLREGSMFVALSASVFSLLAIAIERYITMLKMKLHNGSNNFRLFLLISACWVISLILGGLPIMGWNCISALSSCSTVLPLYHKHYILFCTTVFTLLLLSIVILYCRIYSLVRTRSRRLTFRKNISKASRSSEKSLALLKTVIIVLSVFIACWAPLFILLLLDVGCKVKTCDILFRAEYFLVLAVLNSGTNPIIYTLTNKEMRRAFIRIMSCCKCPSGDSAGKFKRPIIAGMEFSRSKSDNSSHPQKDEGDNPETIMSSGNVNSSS
Description: GTP γ35S binding assay for S1P1 activity. The format is biochemical. Particulars: membranes of cells stably expressing the S1P1 receptor. How it is done: Novel compounds were synthesized and tested for S1P1 activity using the GTP γ^35S binding assay. These compounds may be assessed for their ability to activate or block activation of the human S1P1 receptor in cells stably expressing the S1P1 receptor. GTP γ^35S binding was measured in the medium containing (mM) HEPES 25, pH 7.4, MgCl2 10, NaCl 100, dithitothreitol 0.5, digitonin 0.003%, 0.2 nM GTP γ^35S, and 5 μg membrane protein in a volume of 150 μl. Test compounds were included in the concentration range from 0.08 to 5,000 nM unless indicated otherwise. Membranes were incubated with 100 μM 5′-adenylylimmidodiphosphate for 30 min, and subsequently with 10 μM GDP for 10 min on ice. Drug solutions and membrane were mixed, and then reactions were initiated by adding GTP γ^35S and continued for 30 min at 25° C. Reaction mixtures were filtered over Whatman GF/B filters under vacuum, and washed three times with 3 mL of ice-cold buffer (HEPES 25, pH7.4, MgCl2 10 and NaCl 100). Filters were dried and mixed with scintillant, and counted for ^35S activity using a 8-counter. Agonist-induced GTP γ^35S binding was obtained by subtracting that in the absence of agonist. Binding data were analyzed using a non-linear regression method. In case of antagonist assay, the reaction mixture contained 10 nM […] in the presence of test antagonist at concentrations ranging from 0.08 to 5000 nM.
Activity potency: S1P1 receptor from GTP γ^35S: nM, (EC50).
For orientation: Binding of GTPγS marks nucleotide exchange on a G protein.
`CCCCCCCCCCc1ccc(CNCCCP(=O)(O)O)c2ncccc12` [Compound 1, (3-{[(5-decylquinolin-8-yl)methyl]amino}propyl)phosphonic acid] gave a pEC50 of 8.82.
Still for that read-out and setting: in the case of `CCCCCCCCC#Cc1ccc(CNCCCP(=O)(O)O)c2ncccc12` [Compound 2, (3-{[(5-dec-1-yn-1-ylquinolin-8-yl)methyl]amino}propyl)phosphonic acid] it was 8.47.
`O=P(O)(O)CCCNCc1ccc(C#CCCCCCc2ccccc2)c2cccnc12` [Compound 3, [3-({[5-(7-phenylhept-1-yn-1-yl)quinolin-8-yl]methyl}amino)propyl]phosphonic acid] had a pEC50 of 7.03.
The same measure, in the same setting: the value for `O=P(O)(O)CCCNCc1ccc(C#CCCCCc2ccccc2)c2cccnc12` [Compound 4, [3-({[5-(6-phenylhex-1-yn-1-yl)quinolin-8-yl]methyl}amino)propyl]phosphonic acid] was 6.69; that for `O=P(O)(O)CCCNCc1ccc(CCCCCCCc2ccccc2)c2cccnc12` [Compound 5, [3-({[5-(7-phenylheptyl)quinolin-8-yl]methyl}amino)propyl]phosphonic acid] was 6.76.
The same measure, in the same setting: the value for `O=P(O)(O)CCCNCc1ccc(CCCCCCc2ccccc2)c2cccnc12` [Compound 7, [3-({[5-(6-phenylhexyl)quinolin-8-yl]methyl}amino)propyl]phosphonic acid] was 8.26.
Still for that read-out and setting: in the case of `O=P(O)(O)CCCNCc1ccc(C#CCCCc2ccccc2)c2cccnc12` [Compound 8, [3-({[5-(5-phenylpent-1-yn-1-yl)quinolin-8-yl]methyl}amino)propyl]phosphonic acid] it was 6.27; in that of `O=P(O)(O)OCCNCc1ccc(CCCCCCc2ccccc2)c2cccnc12` [Compound 11, 2-({[5-(6-phenylhexyl)quinolin-8-yl]methyl}amino)ethyl dihydrogen phosphate], 8.66; in that of `COc1cccc(CCCCC#Cc2ccc(CNCCCP(=O)(O)O)c3ncccc23)c1` [Compound 12, {3-[({5-[6-(3-methoxyphenyl)hex-1-yn-1-yl]quinolin-8-yl}methyl)amino]propyl}phosphonic acid], 7.74.
Compound `COc1cccc(CCCCCCc2ccc(CNCCCP(=O)(O)O)c3ncccc23)c1` [Compound 13, {3-[({5-[6-(3-methoxyphenyl)hexyl]quinolin-8-yl}methyl)amino]propyl}phosphonic acid] had a pEC50 of 8.11.
The same measure, in the same setting: the value for `CCCCCCCC/C=C/c1ccc(CNCCCP(=O)(O)O)c2ccccc12` [Compound 15, {3-[({4-[(1E)-dec-1-en-1-yl]-1-naphthyl}methyl)amino]propyl}phosphonic acid] was 6.86.
On the same count and under the same terms, in the case of `O=P(O)(O)CCCNCc1ccc(C#CCCCCc2ccccc2)c2ccccc12` [Compound 16, [3-({[4-(6-phenylhex-1-yn-1-yl)-1-naphthyl]methyl}amino)propyl]phosphonic acid] it was 8.31; in that of `O=P(O)(O)OCCNCc1ccc(CCCCCCc2ccccc2)c2ccccc12` [Compound 18, 2-({[4-(6-phenylhexyl)-1-naphthyl]methyl}amino)ethyl dihydrogen phosphate], 7.26; in that of `O=P(O)(O)CCCNCc1ccc(CCCCCCc2ccccc2)c2ccccc12` [Compound 19, [3-({[4-(6-phenylhexyl)-1-naphthyl]methyl}amino)propyl]phosphonic acid], 8.25.

A further experiment deals with female C57BL6 mice. Briefly: Lymphopenia assay in mice (in vivo blood lymphocyte depletion). As to conditions: after 24 hours; after dosing; FIG. 1 legend. How it is done:
Test drugs are prepared in a solution containing 3% (w/v) 2-hydroxy propyl β-cyclodextrin (HPBCD) and 1% DMSO to a final concentration of 1 mg/ml, and subcutaneously injected to female C57BL6 mice (CHARLES RIVERS) weighing 20-25 g at the dose of 10 mg/Kg. Blood samples are obtained by puncturing the submandibular skin with a Goldenrod animal lancet at 5, 24, 48, 72, and 96 hrs post drug application. Blood is collected into microvettes (SARSTEDT) containing EDTA tripotassium salt. Lymphocytes in blood samples are counted using a HEMAVET Multispecies Hematology System, HEMAVET HV950FS (Drew Scientific Inc.). (Hale, J. et al Bioorg. & Med. Chem. Lett. 14 (2004) 3351).
A lymphopenia assay in mice, as previously described, was employed to measure the in vivo blood lymphocyte depletion after dosing Compound 5 (FIG. 1). These S1P agonists (or modulators) are useful for S1P-related diseases, and exemplified by the lymphopenia in vivo response. In general, test compounds were prepared in a solution containing 3% (w/v) 2-hydroxy propyl β-cyclodextrin (HPBCD) and 1% DMSO to a final concentration of 1 mg/ml, and subcutaneously injected to female C57BL6 mice (CHARLES RIVERS) weighing 20-25 g at the dose of 10 mg/Kg or 2 mg/Kg. […] Lymphocytes in blood samples were counted using a HEMAVET Multispecies Hematology System, HEMAVET HV950FS (Drew Scientific Inc.).
`O=P(O)(O)CCCNCc1ccc(CCCCCCCc2ccccc2)c2cccnc12` [Compound 5, [3-({[5-(7-phenylheptyl)quinolin-8-yl]methyl}amino)propyl]phosphonic acid]: the lymphocyte count entry was “lowered lymphocyte count”.

The experiment is the same for the next values; noted with them: after 24 hours; subcutaneously injected, 10 mg/Kg or 2 mg/Kg; FIG. 1.
For the compound `O=P(O)(O)CCCNCc1ccc(CCCCCCCc2ccccc2)c2cccnc12` [Compound 5, [3-({[5-(7-phenylheptyl)quinolin-8-yl]methyl}amino)propyl]phosphonic acid], the number of lymphocytes is reported as < 1 10^3/μL blood.
